Experimental data reported in patent US8298766B2, “Fluorescent dyes, methods of synthesis and applications thereof” (priority 2010, dated 2012).

What was measured:
[1] = tested on: live MCF-7 cells (human breast cancer cells); test: Imaging of live MCF-7 cells stained with compound by confocal laser scanning microscopy; assay type: cell-based; settings: 30 min at 37° C., excitation Cy5 channel (633 nm)
Procedure: (§1) FIG. 6A is the white light image of live MCF-7 cells (human breast cancer cells) stained with compound A, 6B is the fluorescence image of live MCF-7 cells stained with compound A. The concentration of compound A is 2 μM. The equipment used is a confocal laser scanning microscope (TCS-SP2). Excitation channel: Cy5 (633 nm).
as §1, with “FIG. 7A” for “FIG. 6A”, “compound D, 7B” for “compound A, 6B”, “compound D.” for “compound A.”, “compound D” for “compound A”, “is 1.5” for “is 2”
as §1, with “FIG. 8A” for “FIG. 6A”, “compound E, and 8B” for “compound A, 6B”, “compound E.” for “compound A.”, “compound E” for “compound A”, “is 3” for “is 2”
The equipment used is a confocal laser scanning microscope (TCS-SP2). Excitation channel: Cy5 (633 nm).
(§2) MCF-7 cells are cultured in DEME (Invitrogen) supplemented with 10% FBS (Invitrogen). One day before imaging, cells are seeded in 24-well flat-bottomed plates. The next day, the live cells were incubated with 2 μM of compound A for 30 min at 37° C. under 5% CO2 and then washed with phosphate-buffered saline (PBS) three times, and then the fluorescence imaging was observed under confocal laser scanning microscopy with a 100× objective lens (excited with Cy5 channel). 1000× magnification was utilized in the imaging. The scale bar represents 20 μm. […] The equipment used is a confocal laser scanning microscope (TCS-SP2). Excitation channel: Cy5 (633 nm). The concentration of compound A is 2 μM.
as §2, with “with 1.5” for “with 2”, “compound D” for “compound A”, “(TCS-SP2). […]” for “(TCS-SP2). Excitation channel: Cy5 (633 nm). The concentration of compound A is 2 μM.”
MCF-7 cells are cultured in DEME (Invitrogen) supplemented with 10% FBS (Invitrogen). […] The next day, the live cells were incubated with 3 μM of compound E for 30 min at 37° C. under 5% CO2 and then washed with phosphate-buffered saline (PBS) three times, and then the fluorescence imaging was observed under confocal laser scanning microscopy with a 100× objective lens (excited with Cy5 channel). […]

calf thymus DNA [2] = test: Fluorescence intensity before and after addition of calf thymus DNA; assay type: binding; settings: pH 7.0, 10 mM Tris-HCl buffer; dye 1 μM; calf thymus DNA 40 μg/mL
Procedure: (§3) The ordinate is the fluorescence increasing fold. The equipment used is a spectrofluorophotometer (FP-6500). […] The concentrations of calf thymus DNA and bovine serum albumin are both 40 μg/mL.
(§4) Finally each mixture of dye and BSA solution is diluted with pH 7.0, 10 mM Tris-HCl buffer solution to 3 mL and the fluorescence emission spectra are determined respectively after stabilization. […] Finally each mixture of dye and calf thymus DNA solution is diluted with pH 7.0, 10 mM Tris-HCl buffer solution to 3 mL and the fluorescence emission spectra are determined respectively after stabilization. […] The equipment used is a spectrofluorophotometer (FP-6500).

calf thymus DNA [3] = test: Fluorescence emission spectra in the absence and presence of calf thymus DNA in buffer solution; assay type: binding; settings: dye 1 μM, calf thymus DNA 100 μM
Procedure: (§5) FIG. 1 is the comparison of fluorescence emission spectra of compound A with commercially available dye EB in the absence and presence of calf thymus DNA respectively in pH 7.36, 10 mM Tris-HCl buffer. The abscissa is wavelength (nm) and the ordinate is the relative fluorescence intensity. The equipments used are a UV-Vis spectrophotometer (Hp8453) and a spectrofluorophotometer (FP-6500). The concentrations of compound A, EB and calf thymus DNA are 1 μM, 1 μM and 100 μM respectively.
as §5, with “FIG. 2” for “FIG. 1”, “compound B” for “compound A”, “pH 7.4,” for “pH 7.36,”, “compound B,” for “compound A,”, “100 μM,” for “100 μM”
FIG. 3 is the comparison of fluorescence emission spectra of compound C with commercially available dye EB in the absence and presence of calf thymus DNA respectively in pH 7.24, 10 mM Tris-HCl buffer. The abscissa is wavelength (nm) and the ordinate is the relative fluorescence intensity. […]
Determinations of the fluorescence emission spectra of compound A and commercially available dye EB in the absence and presence of calf thymus DNA respectively in buffer solution
Solutions of compound A in DMSO and EB in water are separately prepared with the concentrations of 1 mM. 3 μL of each solution is diluted with 10 mM Tris-HCl buffer solution (pH 7.36) to 3 mL in a cuvette to determine its fluorescence intensity. Solution of calf thymus DNA in water is prepared, whose concentration is determined as 1.5 mM by the adsorption at 260 nm in spectrophotometry (using the molar absorption coefficients of ε260 nm=6600 M^−1 cm^−1). […]
Determinations of the fluorescence emission spectra of compound B and commercially available dye EB in the absence and presence of calf thymus DNA respectively in buffer solution […]

bovine serum albumin = bovine serum albumin (Bos taurus, UniProt P02769); test: Fluorescence intensity before and after addition of bovine serum albumin; assay type: binding; settings: pH 7.0, 10 mM Tris-HCl buffer; dye 1 μM; bovine serum albumin 40 μg/mL
Chain of bovine serum albumin (P02769 25-607): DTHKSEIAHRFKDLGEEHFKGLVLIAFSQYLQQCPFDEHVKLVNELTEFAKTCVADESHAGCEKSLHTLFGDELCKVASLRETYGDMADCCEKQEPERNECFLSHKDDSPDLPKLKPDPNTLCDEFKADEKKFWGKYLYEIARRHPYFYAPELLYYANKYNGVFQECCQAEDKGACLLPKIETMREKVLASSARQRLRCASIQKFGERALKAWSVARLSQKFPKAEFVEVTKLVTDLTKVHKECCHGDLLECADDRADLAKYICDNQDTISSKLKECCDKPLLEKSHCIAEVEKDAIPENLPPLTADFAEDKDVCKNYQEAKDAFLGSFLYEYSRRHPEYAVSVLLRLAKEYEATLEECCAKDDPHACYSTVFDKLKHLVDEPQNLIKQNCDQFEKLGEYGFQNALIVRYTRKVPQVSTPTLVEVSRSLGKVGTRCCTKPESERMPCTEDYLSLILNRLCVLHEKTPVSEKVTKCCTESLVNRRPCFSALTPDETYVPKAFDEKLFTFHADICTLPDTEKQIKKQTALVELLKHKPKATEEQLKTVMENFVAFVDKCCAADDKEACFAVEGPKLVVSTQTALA
Procedure: as §3, §4

CCN1C=C/C(=C\C=C\c2sc3ccccc3[n+]2CC)c2ccccc21 [M1, reference compound]
staining pattern of live MCF-7 cells (fluorescence image) ([1]; 2 μM): simultaneously nucleus and cytoplasm staining | fluorescence intensity increase upon binding to calf thymus DNA (calf thymus DNA [2]): 40 fold

CCN(CC)CCCC[n+]1c(/C=C/C=C2\C=CN(CC)c3ccccc32)sc2ccccc21.[I-] [compound A]
staining pattern of live MCF-7 cells (fluorescence image) ([1]; 2 μM): nucleus selective staining | fluorescence increase upon binding to calf thymus DNA (I/I0) (calf thymus DNA [3]; pH 7.36, 10 mM Tris-HCl buffer): 55 fold | fluorescence intensity increase with BSA solution (bovine serum albumin): 1.4 fold | fluorescence intensity increase upon binding to calf thymus DNA (calf thymus DNA [2]): 45.5 fold

COc1ccc2c(c1)oc(/C=C/C=C1\C=CN(CCCN3CCCCC3)c3ccccc31)[n+]2CCCN1CCCCC1.[Br-] [compound B]
fluorescence increase upon binding to calf thymus DNA (I/I0) (calf thymus DNA [3]; pH 7.4, 10 mM Tris-HCl buffer): 89 fold

NCCNCCC[n+]1c(/C=C/C=C2\C=CN(CCO)c3ccccc32)sc2ccccc21 [compound C]
fluorescence increase upon binding to calf thymus DNA (I/I0) (calf thymus DNA [3]; pH 7.24, 10 mM Tris-HCl buffer): 75 fold

CC1(C)C(/C=C/C=C2\C=CN(Cc3ccccc3)c3ccccc32)=[N+](CCCNc2ccccc2)c2ccc(Cl)cc21.[Br-] [compound D]
staining pattern of live MCF-7 cells (fluorescence image) ([1]; 1.5 μM): nucleus selective staining

CCCNCC[n+]1c(/C=C/C=C2\C=CN(CCCl)c3cc(C)ccc32)[se]c2ccccc21.[Br-] [compound E]
staining pattern of live MCF-7 cells (fluorescence image) ([1]; 3 μM): nucleus selective staining
